The source of these data is patent US20230167073A1 (Teijin Pharma Limited, priority 2020, published 2023).

This experiment addresses T1, Human TRPC6 (Homo sapiens, UniProt Q9Y210).
T1 construct: expressed in transfected cells
T1 sequence (Q9Y210 1-931): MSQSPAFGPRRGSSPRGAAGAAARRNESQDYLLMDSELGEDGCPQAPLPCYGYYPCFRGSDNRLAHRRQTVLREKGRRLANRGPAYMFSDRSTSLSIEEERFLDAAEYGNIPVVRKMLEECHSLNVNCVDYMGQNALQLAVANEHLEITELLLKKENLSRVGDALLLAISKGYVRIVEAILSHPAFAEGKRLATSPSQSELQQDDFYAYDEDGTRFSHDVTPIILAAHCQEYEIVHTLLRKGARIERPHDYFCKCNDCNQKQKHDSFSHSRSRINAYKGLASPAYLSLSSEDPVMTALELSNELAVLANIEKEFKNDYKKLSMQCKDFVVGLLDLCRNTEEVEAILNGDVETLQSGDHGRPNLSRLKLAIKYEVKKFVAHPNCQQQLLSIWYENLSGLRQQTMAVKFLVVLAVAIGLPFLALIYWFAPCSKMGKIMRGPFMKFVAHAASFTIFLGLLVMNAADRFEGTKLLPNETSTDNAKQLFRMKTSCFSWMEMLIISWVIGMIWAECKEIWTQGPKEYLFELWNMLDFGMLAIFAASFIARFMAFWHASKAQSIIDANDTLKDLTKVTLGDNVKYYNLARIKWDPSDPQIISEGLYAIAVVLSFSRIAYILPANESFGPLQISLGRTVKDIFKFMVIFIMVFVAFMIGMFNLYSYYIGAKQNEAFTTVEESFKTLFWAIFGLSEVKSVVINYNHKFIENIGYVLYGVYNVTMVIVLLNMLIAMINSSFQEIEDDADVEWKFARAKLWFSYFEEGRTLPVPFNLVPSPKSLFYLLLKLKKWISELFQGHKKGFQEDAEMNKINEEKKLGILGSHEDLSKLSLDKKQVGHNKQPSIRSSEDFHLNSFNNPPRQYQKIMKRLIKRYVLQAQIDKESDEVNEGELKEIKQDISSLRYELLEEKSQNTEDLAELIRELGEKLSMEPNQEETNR
Kind of experiment: Evaluation of TRPC6 channel inhibitory activity (1), FLIPR Calcium 5 Assay Kit, OAG stimulation (Compound Nos. 1-1293). The settings on record: Human TRPC6 stably-expressing cells, OAG 30 μM, FLIPR Calcium 5 Assay Kit; read-out: Inhibitory activity (pIC50 class) (converted). It is filed as cell-based. In a few lines: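 Calcium influx read by FLIPR fluorescence in cells stably expressing human TRPC6, dye-loaded 30 min. Compounds preincubated 20 min, then OAG stimulation at 30 μM final. Inhibition fitted by four-parameter logistic regression to give pIC50, reported as +/++/+++ categories.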

On to `Cc1nc(Oc2cc(C#N)ccc2-c2ncc(CN)cn2)cc(N2CCC[C@@H]2C)n1` [compound 795, 4-[5-(aminomethyl)pyrimidin-2-yl]-3-[2-methyl-6-[(2S)-2-methylpyrrolidin-1-yl]pyrimidin-4-yl]oxybenzonitrile], for which the IC50 is less than 10 nM. As for `Cc1nc(Oc2cc(C#N)ccc2-c2ncc(CN)cn2)cc(N(C)CC2CC2)n1` [compound 796, 4-[5-(aminomethyl)pyrimidin-2-yl]-3-[6-[cyclopropylmethyl(methyl)amino]-2-methylpyrimidin-4-yl]oxybenzonitrile], the IC50 was 10 to 1000 nM. To `COCCN(C)c1cc(Oc2cc(C#N)ccc2-c2ncc(CN)cn2)nc(C)n1` [compound 797, 4-[5-(aminomethyl)pyrimidin-2-yl]-3-[6-[2-methoxyethyl(methyl)amino]-2-methylpyrimidin-4-yl]oxybenzonitrile] belongs greater than 1000 nM; to `COCCN(C)c1cc(Oc2cc(C#N)ccc2-c2ncc(CN)cn2)n(C)n1` [compound 798, 4-[5-(aminomethyl)pyrimidin-2-yl]-3-[5-[2-methoxyethyl(methyl)amino]-2-methylpyrazol-3-yl]oxybenzonitrile], 10 to 1000 nM. With `COCCN(C)c1cc(Oc2cc(C#N)ccc2-c2ccc(CN)cn2)n(C)n1` [compound 799, 4-[5-(aminomethyl)pyridin-2-yl]-3-[5-[2-methoxyethyl(methyl)amino]-2-methylpyrazol-3-yl]oxybenzonitrile], the IC50 is less than 10 nM.

On to `COCCCN(C)c1cc(Oc2cc(C#N)ccc2-c2ncc(CCN)cn2)n(C)n1` [compound 800, 4-[5-(2-aminoethyl)pyrimidin-2-yl]-3-[5-[3-methoxypropyl(methyl)amino]-2-methylpyrazol-3-yl]oxybenzonitrile], for which the IC50 was 10 to 1000 nM. For `Cc1nn(CC(C)C)cc1Oc1cc(C#N)ccc1-c1ncc(CCN)cn1` [compound 801, 4-[5-(2-aminoethyl)pyrimidin-2-yl]-3-[3-methyl-1-(2-methylpropyl)pyrazol-4-yl]oxybenzonitrile] the value was less than 10 nM; for `Cc1nn(CC(C)C)cc1Oc1cc(C#N)ccc1-c1ncc(CN)cn1` [compound 802, 4-[5-(aminomethyl)pyrimidin-2-yl]-3-[3-methyl-1-(2-methylpropyl)pyrazol-4-yl]oxybenzonitrile], less than 10 nM. In the case of `Cc1nn(C(C)C)cc1Oc1cc(C#N)ccc1-c1ncc(CCN)cn1` [compound 803, 4-[5-(2-aminoethyl)pyrimidin-2-yl]-3-(3-methyl-1-propan-2-ylpyrazol-4-yl)oxybenzonitrile], the IC50 is less than 10 nM. On to `Cc1c(Oc2cc(C#N)ccc2-c2ncc(CCN)cn2)cnn1CC(C)C` [compound 804, 4-[5-(2-aminoethyl)pyrimidin-2-yl]-3-[5-methyl-1-(2-methylpropyl)pyrazol-4-yl]oxybenzonitrile], for which the IC50 was 10 to 1000 nM. For `Cc1c(Oc2cc(C#N)ccc2-c2ncc(CN)cn2)cnn1CC(C)C` [compound 805, 4-[5-(aminomethyl)pyrimidin-2-yl]-3-[5-methyl-1-(2-methylpropyl)pyrazol-4-yl]oxybenzonitrile] the value was 10 to 1000 nM; for `Cc1c(Oc2cc(C#N)ccc2-c2ncc(CCN)cn2)cnn1C(C)C` [compound 806, 4-[5-(2-aminoethyl)pyrimidin-2-yl]-3-(5-methyl-1-propan-2-ylpyrazol-4-yl)oxybenzonitrile], 10 to 1000 nM; for `N#Cc1ccc(-c2ccc(CCN)cc2)c(Oc2sc(-c3ccccc3)nc2C#N)c1` [compound 807, 5-[2-[4-(2-aminoethyl)phenyl]-5-cyanophenoxy]-2-phenyl-1,3-thiazole-4-carbonitrile], 10 to 1000 nM. For `C[C@@H](N)c1cnc(-c2ccc(C#N)cc2Oc2cc(-c3ccccn3)nn2C)nc1` [compound 808, 4-[5-[(1R)-1-aminoethyl]pyrimidin-2-yl]-3-(2-methyl-5-pyridin-2-ylpyrazol-3-yl)oxybenzonitrile] the value was less than 10 nM; for `C[C@H](N)c1cnc(-c2ccc(C#N)cc2Oc2cc(-c3ccccn3)nn2C)nc1` [compound 809, 4-[5-[(1S)-1-aminoethyl]pyrimidin-2-yl]-3-(2-methyl-5-pyridin-2-ylpyrazol-3-yl)oxybenzonitrile], less than 10 nM. As to `Cn1nc(C(F)(F)F)cc1Oc1cc(C#N)ccc1-c1ccc(CN)cn1` [compound 810, 4-[5-(aminomethyl)pyridin-2-yl]-3-[2-methyl-5-(trifluoromethyl)pyrazol-3-yl]oxybenzonitrile], the IC50 is less than 10 nM.

Take `Cn1nc(C(F)(F)F)cc1Oc1cc(C#N)ccc1-c1ncc(CCN)cn1` [compound 812, 4-[5-(2-aminoethyl)pyrimidin-2-yl]-3-[2-methyl-5-(tritluoromethyl)pyrazol-3-yl]oxybenzonitrile]: the IC50 was less than 10 nM. For `CC(C)c1nc(Oc2cc(C#N)ccc2-c2ncc(CCN)cn2)n(C)n1` [compound 813, 4-[5-(2-aminoethyl)pyrimidin-2-yl]-3-[(2-methyl-5-propan-2-yl-1,2,4-triazol-3-yl)oxy]benzonitrile] the value was greater than 1000 nM; for `CC(C)c1nc(Oc2cc(C#N)ccc2-c2ncc(CN)cn2)n(C)n1` [compound 814, 4-[5-(aminomethyl)pyrimidin-2-yl]-3-[(2-methyl-5-propan-2-yl-1,2,4-triazol-3-yl)oxy]benzonitrile], greater than 1000 nM; for `N#Cc1ccc(-c2ncc(CN)cn2)c(Oc2cc(N3CCCCC3)nnc2Cl)c1` [compound 815, 4-[5-(aminomethyl)pyrimidin-2-yl]-3-(3-chloro-6-piperidin-1-ylpyridazin-4-yl)oxybenzonitrile], 10 to 1000 nM. On to `N#Cc1ccc(-c2ncc(CN)cn2)c(Oc2cc(Cl)nnc2N2CCCCC2)c1` [compound 816, 4-[5-(aminomethyl)pyrimidin-2-yl]-3-(6-chloro-3-piperidin-1-ylpyridazin-4-yl)oxybenzonitrile], for which the IC50 is greater than 1000 nM.

As for `N#Cc1ccc(-c2ncc(CN)cn2)c(Oc2cnnc(-c3ccccn3)c2)c1` [compound 817, 4-[5-(aminomethyl)pyrimidin-2-yl]-3-(6-pyridin-2-ylpyridazin-4 yl)oxybenzonitrile], the IC50 was greater than 1000 nM. As to `N#Cc1ccc(-c2ncc(CN)cn2)c(Oc2cnnc(OC3CCCC3)c2)c1` [compound 818, 4-[5-(aminomethyl)pyrimidin-2-yl]-3-(6-cyclopentyloxypyridazin-4-yl)oxybenzonitrile], the IC50 was 10 to 1000 nM. As to `CC(C)COc1cc(Oc2cc(C#N)ccc2-c2ncc(CN)cn2)cnn1` [compound 819, 4-[5-(aminomethyl)pyrimidin-2-yl]-3-[6-(2-methylpropoxy)pyridazin-4-yl]oxybenzonitrile], the IC50 was 10 to 1000 nM. For `N#Cc1ccc(-c2ncc(CN)cn2)c(Oc2cnnc(-n3ccccc3=O)c2)c1` [compound 820, 4-[5-(aminomethyl)pyrimidin-2-yl]-3-[6-(2-oxopyridin-1-yl)pyridazin-4-yl]oxybenzonitrile] the value was greater than 1000 nM; for `Cc1nnc(N2CCCCC2)cc1Oc1cc(C#N)ccc1-c1ncc(CN)cn1` [compound 821, 4-[5-(aminomethyl)pyrimidin-2-yl]-3-(3-methyl-6-piperidin-1-ylpyridazin-4-yl)oxybenzonitrile], 10 to 1000 nM.

`CN(CCF)c1cc(Oc2cc(C#N)ccc2-c2ncc(CCN)cn2)n(C)n1` [compound 822, 4-[5-(2-aminoethyl)pyrimidin-2-yl]-3-[5-[2-fluoroethyl(methyl)amino]-2-methylpyrazol-3-yl]oxybenzonitrile]: the IC50 was less than 10 nM. As for `Cn1nc(N(CCF)CCF)cc1Oc1cc(C#N)ccc1-c1ncc(CCN)cn1` [compound 823, 4-[5-(2-aminoethyl)pyrimidin-2-yl]-3-[5-[bis(2-fluoroethyl)amino]-2-methylpyrazol-3-yl]oxybenzonitrile], the IC50 is less than 10 nM. Turning to `Cc1nnc(N2CCCC2)cc1Oc1cc(C#N)ccc1-c1ncc(CN)cn1` [compound 824, 4-[5-(aminomethyl)pyrimidin-2-yl]-3-(3-methyl-6-pyrrolidin-1-ylpyridazin-4-yl)oxybenzonitrile], the IC50 was 10 to 1000 nM. As to `Cc1nnc(N2CCOCC2)cc1Oc1cc(C#N)ccc1-c1ncc(CN)cn1` [compound 825, 4-[5-(aminomethyl)pyrimidin-2-yl]-3-(3-methyl-6-morpholin-4-ylpyridazin-4-yl)oxybenzonitrile], the IC50 was 10 to 1000 nM.
